Measurements taken from PubChem BioAssay AID2060484 (Molecular Pharmacology Branch, DTP, NCI, 2025).
pIC50: −log10 of the molar value.

Test system: SUM149PT spheroids with HUVEC/MSC, viability
Test: Anticancer human tumor SUM149PT cell line growth inhibition [GQUAD];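 note: spheroids exposed to drugs for seven days before readout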;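 for viability, T/C: percent viability relative to DMSO vehicle control taken as 100%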
Conditions: for pIC50: curve of first compound; for viability, T/C: stronger effect = lower value
Summary of the method: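 Viability of tumor cells grown as complex spheroids with endothelial and stromal cells, exposed to drug combinations. Top concentration at or near clinical Cmax (else 10 microM), diluted in half-log increments.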

[1] = second compound 0.0316 µM, first compound 0.0316 µM
[2] = second compound 0.0316 µM, first compound 0.316 µM
[3] = second compound 0.1 µM, first compound 0.0316 µM
[4] = second compound 0.1 µM, first compound 0.316 µM
[5] = second compound 0.316 µM, first compound 0.0316 µM
[6] = second compound 0.316 µM, first compound 0.316 µM
[7] = second compound 1 µM, first compound 0.0316 µM
[8] = second compound 1 µM, first compound 0.316 µM
[9] = second compound 3.16 µM, first compound 0.0316 µM
[10] = second compound 3.16 µM, first compound 0.316 µM
[11] = second compound 10 µM, first compound 0.0316 µM
[12] = second compound 10 µM, first compound 0.316 µM
[13] = second compound 0.0316 µM, first compound 0.1 µM
[14] = second compound 0.0316 µM, first compound 1 µM
[15] = second compound 0.0316 µM, first compound 3.16 µM
[16] = second compound 0.0316 µM, first compound 10 µM
[17] = second compound 0.1 µM, first compound 0.1 µM
[18] = second compound 0.1 µM, first compound 1 µM
[19] = second compound 0.1 µM, first compound 3.16 µM
[20] = second compound 0.1 µM, first compound 10 µM
[21] = second compound 0.316 µM, first compound 0.1 µM
[22] = second compound 0.316 µM, first compound 1 µM
[23] = second compound 0.316 µM, first compound 3.16 µM
[24] = second compound 0.316 µM, first compound 10 µM
[25] = second compound 1 µM, first compound 0.1 µM
[26] = second compound 1 µM, first compound 1 µM
[27] = second compound 1 µM, first compound 3.16 µM
[28] = second compound 1 µM, first compound 10 µM
[29] = second compound 3.16 µM, first compound 0.1 µM
[30] = second compound 3.16 µM, first compound 1 µM
[31] = second compound 3.16 µM, first compound 3.16 µM
[32] = second compound 3.16 µM, first compound 10 µM
[33] = second compound 10 µM, first compound 0.1 µM
[34] = second compound 10 µM, first compound 1 µM
[35] = second compound 10 µM, first compound 3.16 µM
[36] = second compound 10 µM, first compound 10 µM

Cc1[nH]c2ccccc2c1CCNCc1ccc(/C=C/C(=O)NO)cc1 + Cc1cnc(CNC(=O)c2c(=O)c3ccc(N4CCCN(C)CC4)nc3n3c2sc2ccccc23)cn1
pIC50 (second compound 0.0316 µM): 6.88
pIC50 (second compound 0.1 µM): 7.00
pIC50 (second compound 0.316 µM): 7.25
pIC50 (second compound 1 µM): > 9.00
pIC50 (second compound 3.16 µM): > 9.00
pIC50 (second compound 10 µM): > 9.00
viability, T/C (second compound 0.0316 µM, first compound 0.000999 µM): 106%
viability, T/C (second compound 0.0316 µM, first compound 0.00316 µM): 86.2%
viability, T/C (second compound 0.0316 µM, first compound 0.00999 µM): 90%
viability, T/C [1]: 89.5%
viability, T/C (second compound 0.0316 µM, first compound 0.0999 µM): 56%
viability, T/C [2]: 29.8%
viability, T/C (second compound 0.1 µM, first compound 0.000999 µM): 66.2%
viability, T/C (second compound 0.1 µM, first compound 0.00316 µM): 62.1%
viability, T/C (second compound 0.1 µM, first compound 0.00999 µM): 67.7%
viability, T/C [3]: 65.2%
viability, T/C (second compound 0.1 µM, first compound 0.0999 µM): 50.1%
viability, T/C [4]: 26.9%
viability, T/C (second compound 0.316 µM, first compound 0.000999 µM): 54.2%
viability, T/C (second compound 0.316 µM, first compound 0.00316 µM): 55.2%
viability, T/C (second compound 0.316 µM, first compound 0.00999 µM): 55.3%
viability, T/C [5]: 54.9%
viability, T/C (second compound 0.316 µM, first compound 0.0999 µM): 45.7%
viability, T/C [6]: 25%
viability, T/C (second compound 1 µM, first compound 0.000999 µM): 51.1%
viability, T/C (second compound 1 µM, first compound 0.00316 µM): 43.2%
viability, T/C (second compound 1 µM, first compound 0.00999 µM): 48.5%
viability, T/C [7]: 47.7%
viability, T/C (second compound 1 µM, first compound 0.0999 µM): 46.2%
viability, T/C [8]: 20.2%
viability, T/C (second compound 3.16 µM, first compound 0.000999 µM): 39.1%
viability, T/C (second compound 3.16 µM, first compound 0.00316 µM): 40.3%
viability, T/C (second compound 3.16 µM, first compound 0.00999 µM): 39.1%
viability, T/C [9]: 42.6%
viability, T/C (second compound 3.16 µM, first compound 0.0999 µM): 37.9%
viability, T/C [10]: 17.8%
viability, T/C (second compound 10 µM, first compound 0.000999 µM): 0.24%
viability, T/C (second compound 10 µM, first compound 0.00316 µM): 1.67%
viability, T/C (second compound 10 µM, first compound 0.00999 µM): 9.84%
viability, T/C [11]: 10.1%
viability, T/C (second compound 10 µM, first compound 0.0999 µM): 2.55%
viability, T/C [12]: 2%

CC(C)n1c(=O)n(C)c2cnc3cc(F)c(-c4ccc(OCCCN5CCCCC5)nc4)cc3c21 + Cc1cnc(CNC(=O)c2c(=O)c3ccc(N4CCCN(C)CC4)nc3n3c2sc2ccccc23)cn1
pIC50 (second compound 0.0316 µM): < 5.00
pIC50 (second compound 0.1 µM): < 5.00
pIC50 (second compound 0.316 µM): 5.41
pIC50 (second compound 1 µM): > 7.50
pIC50 (second compound 3.16 µM): > 7.50
pIC50 (second compound 10 µM): > 7.50
viability, T/C [1]: 56.4%
viability, T/C [13]: 51.5%
viability, T/C [2]: 55.8%
viability, T/C [14]: 59%
viability, T/C [15]: 59.9%
viability, T/C [16]: 48.9%
viability, T/C [3]: 55%
viability, T/C [17]: 55.5%
viability, T/C [4]: 52.6%
viability, T/C [18]: 60.2%
viability, T/C [19]: 64.7%
viability, T/C [20]: 46.2%
viability, T/C [5]: 52%
viability, T/C [21]: 57%
viability, T/C [6]: 52.2%
viability, T/C [22]: 50.9%
viability, T/C [23]: 54.1%
viability, T/C [24]: 35.5%
viability, T/C [7]: 39.6%
viability, T/C [25]: 44.3%
viability, T/C [8]: 48.4%
viability, T/C [26]: 46.4%
viability, T/C [27]: 48.8%
viability, T/C [28]: 32.9%
viability, T/C [9]: 37.7%
viability, T/C [29]: 41.1%
viability, T/C [10]: 42%
viability, T/C [30]: 43.5%
viability, T/C [31]: 39.9%
viability, T/C [32]: 31.5%
viability, T/C [11]: 0.24%
viability, T/C [33]: 8.78%
viability, T/C [12]: 32.2%
viability, T/C [34]: 23%
viability, T/C [35]: 1.78%
viability, T/C [36]: 1.16%

O=c1[nH]cc(F)c(=O)[nH]1 + Cc1[nH]c2ccc(F)cc2c1-c1nc2c3cccnc3c3ncccc3c2[nH]1
pIC50 (second compound 0.0316 µM): 5.12
pIC50 (second compound 0.1 µM): 5.16
pIC50 (second compound 0.316 µM): < 5.00
pIC50 (second compound 1 µM): 5.12
pIC50 (second compound 3.16 µM): 5.28
pIC50 (second compound 10 µM): 5.45
viability, T/C [1]: 103%
viability, T/C [13]: 97.3%
viability, T/C [2]: 107%
viability, T/C [14]: 95.6%
viability, T/C [15]: 57.8%
viability, T/C [16]: 47.5%
viability, T/C [3]: 104%
viability, T/C [17]: 101%
viability, T/C [4]: 108%
viability, T/C [18]: 111%
viability, T/C [19]: 58.3%
viability, T/C [20]: 46.1%
viability, T/C [5]: 99.6%
viability, T/C [21]: 104%
viability, T/C [6]: 97.7%
viability, T/C [22]: 102%
viability, T/C [23]: 61.9%
viability, T/C [24]: 48.5%
viability, T/C [7]: 103%
viability, T/C [25]: 107%
viability, T/C [8]: 98.4%
viability, T/C [26]: 110%
viability, T/C [27]: 63.9%
viability, T/C [28]: 45.6%
viability, T/C [9]: 97.5%
viability, T/C [29]: 98.1%
viability, T/C [10]: 102%
viability, T/C [30]: 103%
viability, T/C [31]: 56.2%
viability, T/C [32]: 42.1%
viability, T/C [11]: 79.9%
viability, T/C [33]: 85.1%
viability, T/C [12]: 101%
viability, T/C [34]: 99.5%
viability, T/C [35]: 51.2%
viability, T/C [36]: 37.2%
